Data on 35 compounds can be found in US12084461B2, “Bicyclic heteroaryl derivatives” (Hoffmann-La Roche Inc., priority 2018, dated 2024).

Broadly, the IC50 is the concentration that inhibits the measured activity by half.

The assay has as its system γ-secretase. As to the kind of experiment: Cellular γ-secretase assay (inhibition of Aβ42 secretion, AlphaLisa). The class given is cell-based. The note with it: human neuroglioma H4 cells overexpressing human APP695 Swedish double mutation, 24 h compound incubation. The method, then:
Human neuroglioma H4 cells overexpressing human APP695 with the Swedish double mutation (K595N/M596L) were plated at 30,000 cells/well/100 μL in 96-well plates in IMDM containing 10% FCS, 0.2 mg/L Hygromycin B and incubated at 37° C., 5% CO2. 3-4 h post plating, compounds are a diluted in media and 50 μL is added as […] concentrate to achieve the final concentration. Compound incubation is performed for 24 h. Final doses typically range from 4 μM down to 0.0013 μM in half-log steps resulting in an eight-point dose response curve.
Appropriate controls using vehicle only and reference compound were applied to this assay. The final concentration of Me2SO was 0.4%.
After incubation at 37° C., 5% CO2, the supernatant was subjected to quantification of secreted Aβ42 by the means of an AlphaLisa assay kit (Human Amyloid beta 1-42 Kit: Cat # AL203C, Perkin Elmer). 20 μL of the cell culture supernatant was transferred to an assay plate. Then 10 μL, of a mixture of the AlphaLisa coupled capture antibody and the biotinylated detection antibody was added and incubated for 3 h at RT while softly shaking the assay plate. After a further addition of 20 μL of the Donor beads the assay plate was incubated for 30 min at RT and constant shaking without exposure to direct light. The assay plate was then read on a Paradigm AlphaLisa Reader using the build-in program with excitation at 680 nm and emission at 570 nm. The measured signals were then used to calculate IC50 values for inhibition of Aβ42 secretion by nonlinear regression fit analysis using XLfit 5.3 software (from IDBS company).
On the technique in general: Bead proximity is the source of the signal in Alpha formats.

Regarding `COc1cc(N2C[C@H]3CC[C@@H](C2)[C@@H]3Nc2nc3n(n2)CCCO[C@@H]3c2cccc(F)c2F)cnn1` (single isomer, unassigned) [Example 1], half-maximal inhibition (IC50) required 0.0847 µM.

For the compound `COc1cc(N2C[C@H]3CC[C@@H](C2)[C@@H]3Nc2nc3n(n2)CCCOC3c2cccc(F)c2F)cnn1` (single isomer, unassigned) [Example 2], the IC50 amounted to 0.0511 µM.

On to `COc1cc(N2C[C@H]3CC[C@@H](C2)[C@@H]3Nc2nc3n(n2)CCCOC3c2ccc(F)cc2F)cnn1` (single isomer, unassigned) [Example 4], for which half-maximal inhibition (IC50) was put at 0.0762 µM.

The compound `Cc1cc(N2C[C@H]3CC[C@@H](C2)[C@@H]3Nc2nc3n(n2)CCCO[C@@H]3c2cccc(F)c2F)ncn1` (single isomer, unassigned) [Example 5] returned an IC50 of 0.0477 µM.

`Cc1cc(N2C[C@H]3CC[C@@H](C2)[C@@H]3Nc2nc3n(n2)CCCOC3c2cccc(F)c2F)ncn1` (single isomer, unassigned) [Example 6] had an IC50 of 0.0623 µM.

`Cc1cc(N2C[C@H]3CC[C@@H](C2)[C@@H]3Nc2nc3n(n2)CCCO[C@@H]3c2cc(F)cc(F)c2)ncn1` (single isomer, unassigned) [Example 7] registered an IC50 of 0.0433 µM.

`Cc1cc(N2C[C@H]3CC[C@@H](C2)[C@@H]3Nc2nc3n(n2)CCCO[C@@H]3c2ccc(F)cc2F)ncn1` (single isomer, unassigned) [Example 8] came in with an IC50 of 0.0749 µM.

Take `Cc1cc(N2C[C@H]3CC[C@@H](C2)[C@@H]3Nc2nc3n(n2)CCCOC3c2cc(F)cc(F)c2)ncn1` (single isomer, unassigned) [Example 9]: the IC50 worked out at 0.0217 µM.

On to `Cc1cc(N2C[C@H]3CC[C@@H](C2)[C@@H]3Nc2nc3n(n2)CCCOC3c2ccc(F)cc2F)ncn1` (single isomer, unassigned) [Example 10], for which the half-inhibitory concentration (IC50) came to 0.0718 µM.

Consider `COc1cc(N2C[C@H]3CC[C@@H](C2)[C@@H]3Nc2nc3n(n2)CCCOC3c2cc(F)cc(F)c2)cnn1` (single isomer, unassigned) [Example 12], for which the IC50 worked out at 0.0723 µM.

For `COc1cc(N2C[C@H]3CC[C@@H](C2)[C@@H]3Nc2nc3n(n2)CCCO[C@@H]3c2ccc(F)c(F)c2F)cnn1` (single isomer, unassigned) [Example 13], the IC50 came to 0.0218 µM.

In turn, `COc1cc(N2C[C@H]3CC[C@@H](C2)[C@@H]3Nc2nc3n(n2)CCCOC3c2ccc(F)c(F)c2F)cnn1` (single isomer, unassigned) [Example 14] had an IC50 of 0.0451 µM.

For `Cc1cc(N2C[C@H]3CC[C@@H](C2)[C@@H]3Nc2nc3n(n2)CCCOC3c2cc(F)cc(Cl)c2)cnn1` (single isomer, unassigned) [Example 16], the IC50 is 0.0626 µM.

Consider `Cc1cc(N2C[C@H]3CC[C@@H](C2)[C@@H]3Nc2nc3n(n2)CCCO[C@@H]3c2ccc(F)c(F)c2F)cnn1` (single isomer, unassigned) [Example 17], for which the IC50 was determined as 0.0823 µM.

The compound `COc1cc(N2C[C@H]3CC[C@@H](C2)[C@@H]3Nc2nc3n(n2)CCCO[C@@H]3c2cc(F)cc(Cl)c2)cnn1` (single isomer, unassigned) [Example 19] showed an IC50 of 0.0132 µM.

`COc1cc(N2C[C@H]3CC[C@@H](C2)[C@@H]3Nc2nc3n(n2)CCCOC3c2cc(F)cc(Cl)c2)cnn1` (single isomer, unassigned) [Example 20] returned an IC50 of 0.0345 µM.

As for `COc1cc(N2C[C@H]3CC[C@@H](C2)[C@@H]3Nc2nc3n(n2)CCOC3c2cc(F)cc(Cl)c2)cnn1` (single isomer, unassigned) [Example 22], the IC50 stood at 0.0718 µM.

With `Cc1cc(N2C[C@H]3CC[C@@H](C2)[C@@H]3Nc2nc3n(n2)CCOC3c2ccc(F)c(F)c2F)ncn1` (single isomer, unassigned) [Example 24], the IC50 was 0.0789 µM.

For `COc1cc(N2C[C@H]3CC[C@@H](C2)[C@@H]3Nc2nc3n(n2)CCOC3c2ccc(F)c(F)c2F)cnn1` (single isomer, unassigned) [Example 28], the IC50 worked out at 0.0959 µM.

`COc1cc(N2C[C@H]3CC[C@@H](C2)[C@@H]3Nc2nc3n(n2)CCO[C@@H]3c2ccc(F)c(F)c2F)ccn1` (single isomer, unassigned) [Example 31] yielded an IC50 of 0.052 µM.

For the compound `Cc1cc(N2C[C@H]3CC[C@@H](C2)[C@@H]3Nc2nc3n(n2)CCCO[C@@H]3c2cc(F)cc(Cl)c2)ncn1` (single isomer, unassigned) [Example 33], the IC50 stood at 0.0109 µM.

On to `Cc1cc(N2C[C@H]3CC[C@@H](C2)[C@@H]3Nc2nc3n(n2)CCCOC3c2cc(F)cc(Cl)c2)ncn1` (single isomer, unassigned) [Example 34], for which the IC50 was 0.0196 µM.

Regarding `COc1cc(N2C[C@H]3CC[C@@H](C2)[C@@H]3Nc2nc3n(n2)CCCO[C@@H]3c2cc(F)cc(Cl)c2)ccn1` (single isomer, unassigned) [Example 35], the IC50 was 0.00658 µM.

The compound `COc1cc(N2C[C@H]3CC[C@@H](C2)[C@@H]3Nc2nc3n(n2)CCCOC3c2cc(F)cc(Cl)c2)ccn1` (single isomer, unassigned) [Example 36] had a half-inhibitory concentration (IC50) of 0.0129 µM.

`COc1cc(N2C[C@H]3CC[C@@H](C2)[C@@H]3Nc2nc3n(n2)CCCOC3c2ccc(F)c(F)c2F)ccn1` (single isomer, unassigned) [Example 38] came in with an IC50 of 0.0127 µM.

On to `Cc1cc(N2C[C@H]3CC[C@@H](C2)[C@@H]3Nc2nc3n(n2)CCCO[C@@H]3c2ccc(F)c(F)c2F)ncn1` (single isomer, unassigned) [Example 39], for which the IC50 was found to be 0.0439 µM.

As for `Cc1cc(N2C[C@H]3CC[C@@H](C2)[C@@H]3Nc2nc3n(n2)CCCOC3c2ccc(F)c(F)c2F)ncn1` (single isomer, unassigned) [Example 40], it took 0.0192 µM to reach half-maximal inhibition (IC50).

For the compound `COc1cc(N2C[C@H]3CC[C@@H](C2)[C@@H]3Nc2nc3n(n2)CCCO[C@@H]3c2ccc(F)cc2F)cnn1` [Example 3, (9R)-9-(2,4-difluorophenyl)-N-[(1R,5S)-3-(6-methoxypyridazin-4-yl)-3-azabicyclo[3.2.1]octan-8-yl]-5,6,7,9-tetrahydro-[1,2,4]triazolo[5,1-c][1,4]oxazepin-2-amine], it took 0.0874 µM to reach half-maximal inhibition (IC50).

In turn, `COc1cc(N2C[C@H]3CC[C@@H](C2)[C@@H]3Nc2nc3n(n2)CCCO[C@@H]3c2cc(F)cc(F)c2)cnn1` [Example 11, (9R)-9-(3,5-difluorophenyl)-N-[(1R,5S)-3-(6-methoxypyridazin-4-yl)-3-azabicyclo[3.2.1]octan-8-yl]-5,6,7,9-tetrahydro-[1,2,4]triazolo[5,1-c][1,4]oxazepin-2-amine] came in with an IC50 of 0.0221 µM.

In the case of `Cc1cc(N2C[C@H]3CC[C@@H](C2)[C@@H]3Nc2nc3n(n2)CCCO[C@@H]3c2cc(F)cc(Cl)c2)cnn1` [Example 15, (9R)-9-(3-chloro-5-fluoro-phenyl)-N-[(1R,5S)-3-(6-methylpyridazin-4-yl)-3-azabicyclo[3.2.1]octan-8-yl]-5,6,7,9-tetrahydro-[1,2,4]triazolo[5,1-c][1,4]oxazepin-2-amine], the IC50 came to 0.0239 µM.

Compound `COc1cc(N2C[C@H]3CC[C@@H](C2)[C@@H]3Nc2nc3n(n2)CCO[C@@H]3c2cc(F)cc(Cl)c2)cnn1` [Example 21, (8R)-8-(3-chloro-5-fluoro-phenyl)-N-[(1R,5S)-3-(6-methoxypyridazin-4-yl)-3-azabicyclo[3.2.1]octan-8-yl]-6,8-dihydro-5H-[1,2,4]triazolo[5,1-c][1,4]oxazin-2-amine] returned an IC50 of 0.0166 µM.

Compound `Cc1cc(N2C[C@H]3CC[C@@H](C2)[C@@H]3Nc2nc3n(n2)CCO[C@@H]3c2ccc(F)c(F)c2F)ncn1` [Example 23, (8R)—N-[(1R,5S)-3-(6-methylpyrimidin-4-yl)-3-azabicyclo[3.2.1]octan-8-yl]-8-(2,3,4-trifluorophenyl)-6,8-dihydro-5H-[1,2,4]triazolo[5,1-c][1,4]oxazin-2-amine] came in with an IC50 of 0.0597 µM.

`Cc1cc(N2C[C@H]3CC[C@@H](C2)[C@@H]3Nc2nc3n(n2)CCO[C@@H]3c2cc(F)cc(Cl)c2)ncn1` [Example 25, (8R)-8-(3-chloro-5-fluoro-phenyl)-N-[(1R,5S)-3-(6-methylpyrimidin-4-yl)-3-azabicyclo[3.2.1]octan-8-yl]-6,8-dihydro-5H-[1,2,4]triazolo[5,1-c][1,4]oxazin-2-amine]: half-maximal inhibition (IC50) was put at 0.0208 µM.

As to `COc1cc(N2C[C@H]3CC[C@@H](C2)[C@@H]3Nc2nc3n(n2)CCO[C@@H]3c2ccc(F)c(F)c2F)cnn1` [Example 27, (8R)—N-[(1R,5S)-3-(6-methoxypyridazin-4-yl)-3-azabicyclo[3.2.1]octan-8-yl]-8-(2,3,4-trifluorophenyl)-6,8-dihydro-5H-[1,2,41]triazolo[5,1-c][1,4]oxazin-2-amine], the IC50 came to 0.0774 µM.

Turning to `COc1cc(N2C[C@H]3CC[C@@H](C2)[C@@H]3Nc2nc3n(n2)CCO[C@@H]3c2cc(F)cc(Cl)c2)ccn1` [Example 29, (8R)-8-(3-chloro-5-fluoro-phenyl)-N-[(1R,5S)-3-(2-methoxy-4-pyridyl)-3-azabicyclo[3.2.1]octan-8-yl]-6,8-dihydro-5H-[1,2,4]triazolo[5,1-c][1,4]oxazin-2-amine], the concentration for half-maximal inhibition (IC50) came to 0.0112 µM.
